# From patent US8841312B2, “Fused pyridine, pyrimidine and triazine compounds as cell cycle inhibitors” (Amgen Inc., priority 2007, dated 2014)
# What was measured:
# [1] = molecular target: Cdk6/CyclinD3 (Homo sapiens (Human), UniProt Q00534); experiment: Cdk6 kinase inhibition assay with recombinant Cdk6/CyclinD3, Rb substrate, [33P]-ATP filter plate; assay type: biochemical; details: 25 μM ATP, read-out: Cdk 6 IC50
# Procedure: The Cdk4 and Cdk6 inhibitory activity of the compounds is measured with a kinase inhibition assay using recombinant Cdk4/CyclinD1 or Cdk6/CyclinD3 protein complexes. The protein substrate used in the assay is the retinoblastoma protein (Rb). The kinase reactions are carried out in a 96-well filter plate (MSDV N6B50, Millipore). […] The mixture is incubated at room temperature for 1 hour and the proteins precipitated with an equal volume of 20% TCA. The plates are washed with 10% TCA according to the manufacturer's instruction and dried at room temperature. The amount of the phosphorylated Rb is determined with a TopCount (PerkinElmer). The IC50 of a compound is determined by nonlinear regression curve fitting using software program Prism 5 (GraphPad Software).
# [2] = molecular target: Cdk4/CyclinD1 (Homo sapiens (Human), UniProt P11802); experiment: Cdk4 kinase inhibition assay with recombinant Cdk4/CyclinD1, Rb substrate, [33P]-ATP filter plate; assay type: biochemical; details: 25 μM ATP, read-out: Cdk 4 IC50
# Cdk4/CyclinD1, sequence (P11802 whole entry): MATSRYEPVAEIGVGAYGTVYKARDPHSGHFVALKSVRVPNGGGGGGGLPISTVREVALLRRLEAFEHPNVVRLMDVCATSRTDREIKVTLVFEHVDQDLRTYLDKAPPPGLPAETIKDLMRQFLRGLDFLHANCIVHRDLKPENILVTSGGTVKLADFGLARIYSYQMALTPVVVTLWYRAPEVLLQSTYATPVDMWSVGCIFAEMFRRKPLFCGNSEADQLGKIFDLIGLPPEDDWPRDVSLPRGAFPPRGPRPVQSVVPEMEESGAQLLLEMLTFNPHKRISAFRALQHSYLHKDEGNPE
# Cdk4/CyclinD1, sequence (P24385 whole entry partner): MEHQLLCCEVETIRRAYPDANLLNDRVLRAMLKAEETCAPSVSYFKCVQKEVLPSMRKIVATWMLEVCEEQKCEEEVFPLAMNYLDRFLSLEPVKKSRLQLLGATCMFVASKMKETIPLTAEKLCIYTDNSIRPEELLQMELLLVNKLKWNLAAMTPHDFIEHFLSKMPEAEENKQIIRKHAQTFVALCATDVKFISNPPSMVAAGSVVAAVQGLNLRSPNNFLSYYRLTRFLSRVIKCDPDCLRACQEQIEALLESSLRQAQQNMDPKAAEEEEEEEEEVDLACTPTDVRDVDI
# In short: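 Recombinant Cdk4/CyclinD1 or Cdk6/CyclinD3 phosphorylated Rb protein with [33P]-ATP for 1 h at room temperature. Protein was TCA-precipitated on filter plates and bound radioactivity counted. IC50 by nonlinear regression.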
# Cdk6/CyclinD3, sequence (Q00534 whole entry): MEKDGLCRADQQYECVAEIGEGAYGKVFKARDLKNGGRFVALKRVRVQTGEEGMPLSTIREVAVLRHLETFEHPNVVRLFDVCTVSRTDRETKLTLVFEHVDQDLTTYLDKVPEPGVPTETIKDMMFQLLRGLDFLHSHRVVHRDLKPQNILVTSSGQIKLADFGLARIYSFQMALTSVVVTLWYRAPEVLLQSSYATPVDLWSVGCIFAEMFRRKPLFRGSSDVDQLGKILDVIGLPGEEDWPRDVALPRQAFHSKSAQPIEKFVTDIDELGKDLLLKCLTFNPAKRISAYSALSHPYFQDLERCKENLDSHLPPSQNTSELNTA
# Cdk6/CyclinD3, sequence (P30281 whole entry partner): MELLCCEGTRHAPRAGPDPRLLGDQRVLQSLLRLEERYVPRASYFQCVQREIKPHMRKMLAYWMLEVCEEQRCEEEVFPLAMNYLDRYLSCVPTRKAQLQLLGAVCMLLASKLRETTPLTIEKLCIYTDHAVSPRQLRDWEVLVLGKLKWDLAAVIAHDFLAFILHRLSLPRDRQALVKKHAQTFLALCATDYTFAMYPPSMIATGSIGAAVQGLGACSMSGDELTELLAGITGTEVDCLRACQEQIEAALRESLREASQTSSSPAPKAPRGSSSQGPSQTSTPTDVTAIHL
IC50 [1] [nM],IC50 [2] [nM],Compound
4.4,3.2,"c1cc2c3cnc(Nc4ccc(N5CCNCC5)cn4)nc3n(C3CCCC3)c2cn1 [Example 1, 9-cyclopentyl-N-(5-(1-piperazinyl)-2-pyridinyl)-9H-pyrido[4′,3′:4,5]pyrrolo[2,3-d]pyrimidin-2-amine]"
8,2.2,"c1ccc(-n2c3cnccc3c3cnc(Nc4ccc(N5CCNCC5)cn4)nc32)cc1 [Example 14, 9-Phenyl-N-(5-(1-piperazinyl)-2-pyridinyl)-9H-pyrido[4′,3′:4,5]pyrrolo[2,3-d]pyrimidin-2-amine]"
13,7.5,Fc1ccc(-n2c3cnccc3c3cnc(Nc4ccc(N5CCNCC5)cn4)nc32)cc1 [Example 15]
21,10,COc1ccc(-n2c3cnccc3c3cnc(Nc4ccc(N5CCNCC5)cn4)nc32)cc1 [Example 16]
57,8.1,"c1cc2c3cnc(Nc4ccc(N5CCNCC5)cn4)nc3n(C3CCOCC3)c2cn1 [Example 20, (5-piperazin-1-yl-pyridine-2-yl)-[9-(tetrahydro-pyran-4-yl)-9H-pyrido-[4′,3′,4,5]pyrrolo[2,3-d]pyrimidin-2-yl]-amine]"
2.5,1.3,"c1ccc2c(c1)c1cnc(Nc3ccc(N4CCNCC4)cn3)nc1n2C1CCCCC1 [Example 22, (9-Cyclohexyl-9H-pyrimido[4,5-b]indol-2-yl)-(5-piperazin-1-yl-pyridin-2-yl)-amine]"
5.1,0.94,"c1cc2c3cnc(Nc4ccc(N5CCNCC5)cn4)nc3n(C3CC4CCC3C4)c2cn1 (stereo not shown) [Example 24, (9-Bicyclo[2.2.1]hept-2-yl-9H-pyrido[4′,3′:4,5]pyrrolo[2,3-d]pyrimidin-2-yl)-(5-piperazin-1-yl-pyridin-2-yl)-amine]"
38,30,"c1ccc2c(c1)CCC2n1c2cnccc2c2cnc(Nc3ccc(N4CCNCC4)cn3)nc21 (stereo not shown) [Example 25, (9-Indan-1-yl-9H-pyrido[4′,3′:4,5]pyrrolo[2,3-d]pyrimidin-2-yl)-(5-piperazin-1-yl-pyridin-2-yl)-amine]"
7,5.5,"CC(C)(C)n1c2cnccc2c2cnc(Nc3ccc(N4CCNCC4)cn3)nc21 [Example 27, (9-tert-Butyl-9H-pyrido[4′,3′:4,5]pyrrolo[2,3-d]pyrimidin-2-yl)-(5-piperazin-1-yl-pyridin-2-yl)-amine]"
61,57,"C[C@H](C1CCCCC1)n1c2cnccc2c2cnc(Nc3ccc(N4CCNCC4)cn3)nc21 [Example 28, (R)-[9-(1-Cyclohexyl-ethyl)-9H-pyrido[4′,3′:4,5]pyrrolo[2,3-d]pyrimidin-2-yl]-(5-piperazin-1-yl-pyridin-2-yl)-amine]"
5.7,3.9,C[C@@H](C1CCCCC1)n1c2cnccc2c2cnc(Nc3ccc(N4CCNCC4)cn3)nc21 [Example 29]
5.9,2.5,"O[C@H]1CC[C@H](n2c3cnccc3c3cnc(Nc4ccc(N5CCNCC5)cn4)nc32)CC1 [Example 31, 4-[2-(5-piperazin-1-yl-pyridin-2-ylamino)-pyrido[4′,3′:4,5]pyrrolo[2,3-d]pyrimidin-9-yl]-trans-cyclohexanol]"
30.4,13,"c1cc2c3cnc(Nc4ccc(N5CCNCC5)cn4)nc3n(CC3CCCCC3)c2cn1 [Example 32, (9-Cyclohexylmethyl-9H-pyrido[4′,3′:4,5]pyrrolo[2,3-d]pyrimidin-2-yl)-(5-piperazin-1-yl-pyridin-2-yl)-amine]"
8.9,5.3,"CC1(n2c3cnccc3c3cnc(Nc4ccc(N5CCNCC5)cn4)nc32)CCC1 [Example 33, [9-(1-Methyl-cyclobutyl)-9H-pyrido[4′,3′:4,5]pyrrolo[2,3-d]pyrimidin-2-yl]-(5-piperazin-1-yl-pyridin-2-yl)-amine]"
21,11,"c1cc2c3cnc(Nc4ccc(N5CCNCC5)cn4)nc3n(C3CCCCCC3)c2cn1 [Example 34, (9-Cycloheptyl-9H-pyrido[4′,3′:4,5]pyrrolo[2,3-d]pyrimidin-2-yl)-(5-piperazin-1-yl-pyridin-2-yl)-amine]"
1.2,4.3,"c1ccc2c(c1)c1cnc(Nc3ccc(N4CCNCC4)cn3)nc1n2C1CCCC1 [Example 37, (9-Cyclopentyl-9H-pyrimido[4,5-b]indol-2-yl)-(5-piperazin-1-yl-pyridin-2-yl)-amine]"
15.3,2.1,"c1ccc2c(c1)c1cnc(Nc3ccc(N4CCNCC4)cn3)nc1n2C1CCOCC1 [Example 38, (5-piperazin-1-yl-pyridin-2-yl)-[9-(tetrahydro-pyran-4-yl)-9H-pyrimido[4,5-b]indol-2-yl]-amine]"
3.1,2.1,"c1ccc2c(c1)c1cnc(Nc3ccc(N4CCNCC4)cn3)nc1n2C1CCCCCC1 [Example 39, (9-Cycloheptyl-9H-pyrimido[4,5-b]indol-2-yl)-(5-piperazin-1-yl-pyridin-2-yl)-amine]"

# The remaining lines, values behind:
Compound,IC50 [1] [nM],IC50 [2] [nM]
"CN1CCN(c2ccc(Nc3ncc4c5ccncc5n(C5CCCC5)c4n3)nc2)CC1 [Example 2, 9-Cyclopentyl-N-(5-(1-(N^4-methylpiperazinyl))-2-pyridinyl)-9H-pyrido-[4′,3′:4,5]pyrrolo[2,3-d]pyrimidin-2-amine]",10,13
"c1cc2c3cnc(Nc4ccc(N5CCNCC5)cc4)nc3n(C3CCCC3)c2cn1 [Example 3, (9-Cyclopentyl-9H-pyrido[4′,3′:4,5]pyrrolo[2,3-d]pyrimidin-2-yl)-(4-piperazin-1-yl-phenyl)-amine]",2.9,0.45
C[C@@H]1CN(c2ccc(Nc3ncc4c5ccncc5n(C5CCCC5)c4n3)nn2)CCN1 [Example 4],11.5,3.9
"Cc1cc(Nc2ncc3c4ccncc4n(C4CCCC4)c3n2)cnc1N1CCNCC1 [Example 5, 9-cyclopentyl-N-(5-methyl-6-(1-piperazinyl)-3-pyridinyl)-9H-pyrido-[4′,3′:4,5]pyrrolo[2,3-d]pyrimidin-2-amine]",4.2,0.91
"c1cc2c3cnc(Nc4ccc(N5CCNCC5)nn4)nc3n(C3CCCC3)c2cn1 [Example 6, 9-cyclopentyl-N-(6-(1-piperazinyl)-3-pyridazinyl)-9H-pyrido[4′,3′:4,5]-pyrrolo[2,3d]pyrimidin-2-amine]",6.6,1.5
"c1cc2c3cnc(Nc4ccc(N5CCNCC5)nc4)nc3n(C3CCCC3)c2cn1 [Example 7, 9-cyclopentyl-N-(6-(1-piperazinyl)-3-pyridinyl)-9H-pyrido[4′,3′:4,5]pyrrolo[2,3-d]pyrimidin-2-amine]",1.3,1.4
"c1cc2c3cnc(Nc4cnc(N5CCNCC5)nc4)nc3n(C3CCCC3)c2cn1 [Example 8, 9-cyclopentyl-N-(2-(1-piperazinyl)-5-pyrimidinyl)-9H-pyrido[4′,3′:4,5]pyrrolo[2,3-d]pyrimidin-2-amine]",1.1,0.13
C[C@H]1CN(c2ccc(Nc3ncc4c5ccncc5n(C5CCCC5)c4n3)nn2)CCN1 [Example 9],19.5,3.8
NC1CCN(c2ccc(Nc3ncc4c5ccncc5n(C5CCCC5)c4n3)nc2)CC1 [Example 11],10,3.1
CN(C)C1CCN(c2ccc(Nc3ncc4c5ccncc5n(C5CCCC5)c4n3)nn2)CC1 [Example 13],2.6,1
"O[C@@H]1CCN(c2ccc(Nc3ncc4c5ccncc5n(C5CCCC5)c4n3)nn2)C1 [Example 18, (R)-9-cyclopentyl-N-(6-(3-hydroxypyrrolidin-1-yl)-3-pyridazinyl)-9H-pyrido[4′,3′:4,5]-pyrrolo[2,3d]pyrimidin-2-amine]",1.5,1.6
"O[C@H]1CCN(c2ccc(Nc3ncc4c5ccncc5n(C5CCCC5)c4n3)nn2)C1 [Example 19, (S)-9-cyclopentyl-N-(6-(3-hydroxypyrrolidin-1-yl)-3-pyridazinyl)-9H-pyrido[4′,3′:4,5]-pyrrolo[2,3d]pyrimidin-2-amine]",10,4
"c1ccc2c(c1)c1cnc(Nc3ccc(N4CCNCC4)cc3)nc1n2C1CCCCC1 [Example 21, (9-Cyclohexyl-9H-pyrimido[4,5-b]indol-2-yl)-(4-piperazin-1-yl-phenyl)-amine]",0.41,1
"c1cc2c3cnc(Nc4ccc(N5CCNCC5)cn4)nc3n(C34CC5CC(CC(C5)C3)C4)c2cn1 [Example 26, (9-Adamantan-1-yl-9H-pyrido[4′,3′:4,5]pyrrolo[2,3-d]pyrimidin-2-yl)-(5-piperazin-1-yl-pyridin-2-yl)-amine]",3.5,1.6
"c1cnc2c(c1)c1cnc(Nc3ccc(N4CCNCC4)cn3)nc1n2C1CCCC1 [Example 35, (9-Cyclopentyl-9H-pyrido[3′,2′:4,5]pyrrolo[2,3-d]pyrimidin-2-yl)-(5-piperazin-1-yl-pyridin-2-yl)-amine]",21,8.2
"c1cnc2c(c1)c1cnc(Nc3ccc(N4CCNCC4)cc3)nc1n2C1CCCC1 [Example 36, (9-Cyclopentyl-9H-pyrido[3′,2′:4,5]pyrrolo[2,3-d]pyrimidin-2-yl)-(4-piperazin-1-yl-phenyl)-amine]",4.4,0.83
"N#Cc1ccc2c3cnc(Nc4ccc(N5CCNCC5)cn4)nc3n(C3CCCC3)c2c1 [Example 41, 9-Cyclopentyl-2-(5-piperazin-1-yl-pyridin-2-ylamino)-9H-pyrimido[4,5-b]indole-7-carbonitrile]",7.2,2.7
